# US8053581B2, “Trisubstituted thiazole compounds, preparations methods, pharmaceutical compositions and medicals uses thereof” (Institute of Pharmacology and Toxicology Academy of …, priority 2006, dated 2011)
# Tests used:
# CETP = target: T1, CETP (Homo sapiens, UniProt P11597); test: Determination of CETP inhibition activity (fluorescent donor/acceptor transfer); format: biochemical; settings: Concentration of compounds 500 μM; read-out: CETP inhibition activity Inhibition rate(%)
# T1 sequence (P11597 18-493): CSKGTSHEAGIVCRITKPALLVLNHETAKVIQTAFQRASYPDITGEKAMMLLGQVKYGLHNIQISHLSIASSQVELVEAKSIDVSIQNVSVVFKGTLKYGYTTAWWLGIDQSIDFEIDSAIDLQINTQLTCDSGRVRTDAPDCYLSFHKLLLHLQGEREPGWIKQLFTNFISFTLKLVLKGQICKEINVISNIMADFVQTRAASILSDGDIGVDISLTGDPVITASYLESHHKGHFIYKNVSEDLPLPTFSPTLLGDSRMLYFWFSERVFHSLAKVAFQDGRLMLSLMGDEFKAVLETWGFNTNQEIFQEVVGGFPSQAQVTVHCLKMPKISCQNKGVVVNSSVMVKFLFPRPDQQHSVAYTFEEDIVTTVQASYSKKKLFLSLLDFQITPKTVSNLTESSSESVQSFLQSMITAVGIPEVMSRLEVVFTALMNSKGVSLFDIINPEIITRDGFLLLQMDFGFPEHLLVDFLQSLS
# Description: A mixture containing 3 μl of a donor, 9 μl of an acceptor (250 μg protein), 3 μl of CETP solution and 85 μl of an analytic buffer, 10 mM Tris, 0.15 M NaCl and 2 mM EDTA, pH 7.4 was incubated at 37° C. for 0.5 hours, the fluorescence intensity was determined on Victor 3 double illuminometer/fluorescence counter (Perkin Elmer) carrying […] light wave length.
# PLTP = target: T2, PLTP (Homo sapiens, UniProt P55058); test: Determination of PLTP inhibition activity (radiolabelled phospholipid liposome to HDL transfer with plasma); format: biochemical; settings: for inhibition at 250 µM: Concentration of compounds 250 μM
# T2 construct: from tissue
# Description: 30 μl (about 1000 cpm/μl) phospholipids liposome, 30 μl HDL ([…]), 337 μl TSE and 3 μl plasma were mixed, incubated in 37° C. water-bath for 1 hour, and then added 300 μl of a settling solution (50 ml solution preparation: 5.36 ml 5N NaCl, 9.075 ml 2M MnCl2 and 46 mg liver phospholipid were mixed, added water to 50 ml), the solution was stood at room temperature for 10 minutes, rotated at high speed for 10 minutes (to remove phospholipids liposome), 500 μl of the supernatant was sampled and counted. PLTP activity (cpm/h/3 μl)=sample cpm-background cpm.
# [1] = read-out: PLTP inhibition activity Inhibition rate(%)
# T2 sequence (P55058 18-493, species assumed): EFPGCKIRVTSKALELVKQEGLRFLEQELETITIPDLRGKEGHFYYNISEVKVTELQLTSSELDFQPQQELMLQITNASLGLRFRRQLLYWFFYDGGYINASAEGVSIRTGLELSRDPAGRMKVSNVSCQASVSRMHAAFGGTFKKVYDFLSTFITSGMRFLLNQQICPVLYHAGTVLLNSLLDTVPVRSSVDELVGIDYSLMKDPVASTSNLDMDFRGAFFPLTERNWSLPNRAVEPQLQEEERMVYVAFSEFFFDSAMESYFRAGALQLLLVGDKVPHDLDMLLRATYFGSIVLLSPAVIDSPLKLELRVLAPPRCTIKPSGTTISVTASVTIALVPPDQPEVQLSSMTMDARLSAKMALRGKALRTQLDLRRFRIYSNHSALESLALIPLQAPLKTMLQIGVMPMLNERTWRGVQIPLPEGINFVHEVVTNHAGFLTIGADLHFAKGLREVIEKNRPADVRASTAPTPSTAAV
SMILES,melting point [°C],other results
"O=C(Nc1nc(-c2ccc(O)cc2)c(Cc2ccccc2)s1)c1ccc(Cl)cc1 [Example 8, N-[5-benzyl-4-(4-hydroxy-phenyl)-thiazol-2-yl]-4-chloro-benzamide]",109 to 110,"inhibition at 500 µM (CETP): 80.4%; inhibition at 150 µM (PLTP; Concentration of compounds 150 μM, read-out: PLTP inhibition activity Inhibition rate(%)): 0%"
"O=C(Nc1nc(-c2ccc(O)cc2)c(Cc2ccccc2)s1)c1ccc(O)c(O)c1 [Example 19, N-[5-benzyl-4-(4-hydroxy-phenyl)-thiazol-2-yl]-3,4-dihydroxy-benzamide]",240 to 241,inhibition at 500 µM (CETP): 19.4%; IC50 (PLTP): 70 µM; inhibition at 250 µM (PLTP; [1]): 79.8%
"COc1ccc(-c2nc(N)sc2Cc2ccc(F)cc2)cc1 [Example 21, 5-(4-fluoro-benzyl)-4-(4-methoxy-phenyl)-thiazol-2-ylamine]",199 to 201,inhibition at 500 µM (CETP): 52.8%; inhibition at 250 µM (PLTP; [1]): 11.5%
"O=C(Nc1nc(-c2ccc(F)cc2)c(Cc2ccc([N+](=O)[O-])cc2)s1)c1ccc(O)c(O)c1 [Example 31, N-[4-(4-fluoro-phenyl)-5-(4-nitro-benzyl)-thiazol-2-yl]-3,4-dihydroxy-benzamide]",276 to 278,inhibition at 500 µM (CETP): 0%; IC50 (PLTP): 75 µM; inhibition at 250 µM (PLTP; [1]): 100%
"O=C(Nc1nc(-c2ccccc2)c(Cc2ccc([N+](=O)[O-])cc2)s1)c1ccc(O)c(O)c1 [Example 32, 3,4-dihydroxy-N-[5-(4-nitro-benzyl)-4-phenyl-thiazol-2-yl]-benzamide]",–,inhibition at 500 µM (CETP): 0%; IC50 (PLTP): 75 µM; inhibition at 250 µM (PLTP; [1]): 100%
"O=C(Nc1nc(-c2ccc(O)cc2)c(Cc2ccc(F)cc2)s1)c1ccc(O)c(O)c1 [Example 33, N-[5-(4-fluoro-benzyl)-4-(4-hydroxy-phenyl)-thiazol-2-yl]-3,4-dihydroxy-benzamide]",154 to 155,inhibition at 500 µM (CETP): 9.2%; IC50 (PLTP): 100 µM; inhibition at 250 µM (PLTP; [1]): 73.2%
"O=C(Nc1nc(-c2ccc(O)cc2)c(Cc2ccccc2)s1)c1ccccc1O [Example 39, N-[5-benzyl-4-(4-hydroxy-phenyl)-thiazol-2-yl]-2-hydroxy-benzamide]",279 to 280,–
"COc1ccc(-c2nc(NC(=O)c3cccc(OC)c3)sc2Cc2ccccc2)cc1 [Example 42, N-[5-benzyl-4-(4-methoxy-phenyl)-thiazol-2-yl]-3-methoxy-benzamide]",71 to 72,–
"COc1ccc(-c2nc(NC(=O)c3cc(OC)cc(OC)c3)sc2Cc2ccccc2)cc1 [Example 43, N-[5-benzyl-4-(4-methoxy-phenyl)-thiazol-2-yl]-3,5-dimethoxy-benzamide]",152 to 153,–
"O=C(Nc1nc(-c2ccc(O)cc2)c(Cc2ccccc2)s1)c1cccc(O)c1 [Example 44, N-[5-benzyl-4-(4-hydroxy-phenyl)-thiazol-2-yl]-3-hydroxy-benzamide]",233 to 234,–
"O=C(Nc1nc(-c2ccc(O)cc2)c(Cc2ccccc2)s1)c1cc(O)cc(O)c1 [Example 45, N-[5-benzyl-4-(4-hydroxy-phenyl)-thiazol-2-yl]-3,5-dihydroxy-benzamide]",262 to 263,–
"O=C(Nc1nc(-c2ccc(O)cc2)c(Cc2ccccc2)s1)c1ccc(O)cc1 [Example 46, N-[5-benzyl-4-(4-hydroxy-phenyl)-thiazol-2-yl]-4-hydroxy-benzamide]",254 to 255,–
"COc1ccc(-c2nc(NC(=O)c3ccc(OC)c(OC)c3)sc2CC2CCCCC2)cc1 [Example 48, N-[5-cyclohexylmethyl-4-(4-methoxy-phenyl)-thiazol-2-yl]-3,4-dimethoxy-benzamide]",171 to 172,–
COc1ccc(-c2nc(NC(=O)c3cc(OC)c(OC)c(OC)c3)sc2CC2CCCCC2)cc1 [Example 50],193 to 194,–
"COc1ccc(-c2nc(N)sc2C)cc1 [Example 52, 4-(4-methoxy-phenyl)-5-methyl-thiazol-2-ylamine]",139 to 140,–
"COc1ccc(-c2nc(NC(=O)c3cc(OC)c(OC)c(OC)c3)sc2C)cc1 [Example 53, 3,4,5-trimethoxy-N-[4-(4-methoxy-phenyl)-5-methyl-thiazol-2-yl]-benzamide]",105 to 106,–
"COc1ccc(-c2nc(NC(=O)c3ccc(OC)c(OC)c3)sc2C)cc1 [Example 54, 3,4-dimethoxy-N-[4-(4-methoxy-phenyl)-5-methyl-thiazol-2-yl]-benzamide]",174 to 175,–
"Cc1sc(NC(=O)c2ccc(O)c(O)c2)nc1-c1ccc(O)cc1 [Example 56, 3,4-dihydroxy-N-[4-(4-hydroxy-phenyl)-5-methyl-thiazol-2-yl]-benzamide]",–,inhibition at 500 µM (CETP): 58.7%; IC50 (PLTP): 75 µM; inhibition at 250 µM (PLTP; [1]): 71.9%
"COc1ccc(-c2nc(NC(=O)c3ccc(OC)c(OC)c3)sc2CCc2ccccc2)cc1 [Example 58, 3,4-dimethoxy-N-[4-(4-methoxy-phenyl)-5-phenylethyl-thiazol-2-yl]-benzamide]",74 to 75,–

# Second part, led by results:
melting point [°C],SMILES,other results
78 to 79,"COc1ccc(-c2nc(NC(=O)c3cc(OC)c(OC)c(OC)c3)sc2CCc2ccccc2)cc1 [Example 59, 3,4,5-trimethoxy-N-[4-(4-methoxy-phenyl)-5-phenylethyl-thiazol-2-yl]-benzamide]",–
150 to 151,"CCCCc1sc(NC(=O)c2ccc(OC)c(OC)c2)nc1-c1ccc(OC)cc1 [Example 63, N-[5-n-butyl-4-(4-methoxy-phenyl)-thiazol-2-yl]-3,4-dimethoxy-benzamide]",–
197 to 198,"CCCCc1sc(NC(=O)c2cc(OC)c(OC)c(OC)c2)nc1-c1ccc(OC)cc1 [Example 64, N-[5-n-butyl-4-(4-methoxy-phenyl)-thiazol-2-yl]-3,4,5-trimethoxy-benzamide]",–
182 to 183,"COc1ccc(-c2nc(N(S(=O)(=O)c3ccc(C)cc3)S(=O)(=O)c3ccc(C)cc3)sc2Cc2ccccc2)cc1 [Example 67, N-[5-benzyl-4-(4-methoxy-phenyl)-thiazol-2-yl]-N-p-tolylsulfonyl-p-tolylsulfonamide]",–
142 to 143,"COc1ccc(-c2nc(NC(=O)CCc3ccc(OC)c(OC)c3)sc2Cc2ccccc2)cc1 [Example 68, N-[5-benzyl-4-(4-methoxy-phenyl)-thiazol-2-yl]-3-(3,4-dimethoxy-phenyl)-propanamide]",–
119 to 120,"COc1ccc(-c2nc(N(CCO)CCO)sc2Cc2ccccc2)cc1 [Example 73, 2-[[5-benzyl-4-(4-methoxy-phenyl)-thiazol-2-yl]-(2-hydroxy-ethyl)-amino]-ethanol]",–
222 to 223,"Oc1ccc(-c2nc(N3CCNCC3)sc2Cc2ccccc2)cc1 [Example 75, 4-(5-benzyl-2-piperazin-4-yl-thiazol-4-yl)-phenol]",–
167 to 168,"OCCN(CCO)c1nc(-c2ccc(O)cc2)c(Cc2ccccc2)s1 [Example 76, 4-(5-benzyl-2-[bis-(2-hydroxy-ethyl)-amino]-thiazol-4-yl)-phenol]",–
177 to 178,"Oc1ccc(-c2nc(CCc3ccc(O)c(O)c3)sc2Cc2ccccc2)cc1 [Example 78, 4-{2-[5-benzyl-4-(4-hydroxy-phenyl)-thiazol-2-yl]-ethyl}-benzene-1,2-diol]",–
